≈ marks a conversion by molar mass, not a printed value. Where “and” joins values, the source holds several entries; their conditions need not be identical. Equal values may be shown once. One block for each compound: values may come before it.
How the values were obtained:
[1] = tested on: MCF7; assay: cells; format: functional, cell-based; conditions: Homo sapiens, MCF7, 24 h
Description: Antiproliferative activity against human MCF7 assessed as reduction in cell viability incubated for 24 hrs by MTT assay

[2] = physchem; conditions: PBS, pH 7.4
Description: Solubility of the compound in PBS at pH 7.4

[3] = physchem; conditions: octanol/water
Description: Lipophilicity, log P of the compound

[4] = in vitro; conditions: human, liver microsomes, po, 10 mg/kg
Description: Half life in human liver microsomes at 10 mg/kg, po

[5] = molecular target: Vascular endothelial growth factor receptor 2 (Homo sapiens, UniProt P35968); assay: Inhibition of VEGF-R2 (unknown origin)
Vascular endothelial growth factor receptor 2, sequence (P35968 whole entry): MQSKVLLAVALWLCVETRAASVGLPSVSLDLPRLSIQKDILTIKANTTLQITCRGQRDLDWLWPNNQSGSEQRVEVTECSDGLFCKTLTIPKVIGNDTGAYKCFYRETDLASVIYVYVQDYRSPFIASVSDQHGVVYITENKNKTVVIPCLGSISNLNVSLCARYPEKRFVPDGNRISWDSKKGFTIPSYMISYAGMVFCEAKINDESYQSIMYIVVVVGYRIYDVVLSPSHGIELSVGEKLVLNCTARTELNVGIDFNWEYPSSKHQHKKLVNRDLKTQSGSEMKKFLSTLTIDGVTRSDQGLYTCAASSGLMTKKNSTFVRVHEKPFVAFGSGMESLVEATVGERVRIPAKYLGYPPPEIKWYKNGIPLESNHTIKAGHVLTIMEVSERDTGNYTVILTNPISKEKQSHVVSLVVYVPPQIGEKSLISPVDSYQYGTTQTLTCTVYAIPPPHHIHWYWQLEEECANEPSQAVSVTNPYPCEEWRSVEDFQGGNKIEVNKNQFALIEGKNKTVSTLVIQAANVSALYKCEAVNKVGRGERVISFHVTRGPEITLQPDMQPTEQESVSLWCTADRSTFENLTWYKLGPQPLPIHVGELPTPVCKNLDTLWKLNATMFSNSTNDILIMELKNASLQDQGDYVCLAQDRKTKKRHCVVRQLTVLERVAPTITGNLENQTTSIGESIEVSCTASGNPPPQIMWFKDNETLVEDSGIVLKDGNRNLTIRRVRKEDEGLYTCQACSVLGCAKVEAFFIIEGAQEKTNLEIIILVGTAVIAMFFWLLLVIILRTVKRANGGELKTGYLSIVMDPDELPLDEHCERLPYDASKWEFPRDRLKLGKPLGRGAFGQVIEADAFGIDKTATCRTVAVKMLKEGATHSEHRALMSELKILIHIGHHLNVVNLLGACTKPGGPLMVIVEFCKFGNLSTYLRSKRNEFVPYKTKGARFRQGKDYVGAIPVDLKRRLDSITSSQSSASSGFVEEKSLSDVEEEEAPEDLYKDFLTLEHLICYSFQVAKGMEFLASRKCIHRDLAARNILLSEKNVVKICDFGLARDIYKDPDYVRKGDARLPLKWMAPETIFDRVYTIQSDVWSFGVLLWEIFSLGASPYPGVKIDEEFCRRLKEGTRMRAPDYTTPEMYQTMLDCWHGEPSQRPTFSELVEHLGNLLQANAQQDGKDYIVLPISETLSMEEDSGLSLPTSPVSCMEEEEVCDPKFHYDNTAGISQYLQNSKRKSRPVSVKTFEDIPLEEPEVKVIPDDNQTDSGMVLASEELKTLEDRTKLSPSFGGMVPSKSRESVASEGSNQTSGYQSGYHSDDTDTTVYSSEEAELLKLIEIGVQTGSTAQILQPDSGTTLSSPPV

[6] = molecular target: Aurora kinase B (Homo sapiens, UniProt Q96GD4); assay: Inhibition of Aurora B (unknown origin)
Aurora kinase B, sequence (Q96GD4 whole entry): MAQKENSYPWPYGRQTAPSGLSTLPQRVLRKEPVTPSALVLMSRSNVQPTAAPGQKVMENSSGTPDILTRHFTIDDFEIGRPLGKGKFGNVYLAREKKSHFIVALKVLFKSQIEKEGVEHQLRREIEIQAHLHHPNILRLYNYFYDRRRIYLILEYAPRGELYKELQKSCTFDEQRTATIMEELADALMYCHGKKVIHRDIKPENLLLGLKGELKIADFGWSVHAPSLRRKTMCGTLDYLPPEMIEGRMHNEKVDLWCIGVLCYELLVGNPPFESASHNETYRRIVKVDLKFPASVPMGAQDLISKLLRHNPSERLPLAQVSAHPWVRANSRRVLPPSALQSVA

[7] = molecular target: Epidermal growth factor receptor (Homo sapiens, UniProt P00533); assay: Inhibition of EGF-R (unknown origin)
Epidermal growth factor receptor, sequence (P00533 whole entry): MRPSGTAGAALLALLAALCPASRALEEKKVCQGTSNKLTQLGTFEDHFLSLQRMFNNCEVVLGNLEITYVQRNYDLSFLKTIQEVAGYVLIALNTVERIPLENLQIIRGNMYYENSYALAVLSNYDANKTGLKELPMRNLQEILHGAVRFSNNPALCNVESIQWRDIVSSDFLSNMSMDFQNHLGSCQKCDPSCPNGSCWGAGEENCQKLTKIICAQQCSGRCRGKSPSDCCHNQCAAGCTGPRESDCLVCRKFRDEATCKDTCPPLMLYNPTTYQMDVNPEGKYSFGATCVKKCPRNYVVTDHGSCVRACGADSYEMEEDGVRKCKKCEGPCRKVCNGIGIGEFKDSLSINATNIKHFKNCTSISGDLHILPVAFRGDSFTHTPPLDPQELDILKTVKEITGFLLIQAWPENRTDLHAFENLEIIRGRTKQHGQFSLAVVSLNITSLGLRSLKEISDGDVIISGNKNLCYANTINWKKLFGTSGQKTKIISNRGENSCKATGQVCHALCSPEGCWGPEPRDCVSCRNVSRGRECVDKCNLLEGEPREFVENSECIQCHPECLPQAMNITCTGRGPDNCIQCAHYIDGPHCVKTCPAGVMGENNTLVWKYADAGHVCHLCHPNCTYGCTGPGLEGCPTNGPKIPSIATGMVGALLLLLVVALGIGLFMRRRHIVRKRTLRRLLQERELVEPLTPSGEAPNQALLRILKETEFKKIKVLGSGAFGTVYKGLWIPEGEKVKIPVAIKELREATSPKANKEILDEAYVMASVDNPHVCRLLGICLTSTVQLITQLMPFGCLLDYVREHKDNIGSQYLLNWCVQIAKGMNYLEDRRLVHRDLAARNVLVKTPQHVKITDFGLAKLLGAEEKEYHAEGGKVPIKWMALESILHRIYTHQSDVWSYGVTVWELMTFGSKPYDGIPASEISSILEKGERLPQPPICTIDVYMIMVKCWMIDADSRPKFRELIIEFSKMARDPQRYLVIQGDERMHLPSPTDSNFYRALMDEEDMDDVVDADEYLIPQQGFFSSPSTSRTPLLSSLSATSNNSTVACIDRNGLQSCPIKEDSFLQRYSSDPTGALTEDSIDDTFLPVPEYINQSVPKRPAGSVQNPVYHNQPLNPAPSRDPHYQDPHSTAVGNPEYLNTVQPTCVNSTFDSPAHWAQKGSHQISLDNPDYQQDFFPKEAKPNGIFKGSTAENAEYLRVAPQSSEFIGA

[8] = molecular target: Insulin-like growth factor 1 receptor (Homo sapiens, UniProt P08069); assay: Inhibition of IGF-1R (unknown origin)
Insulin-like growth factor 1 receptor, sequence (P08069 31-736 limits assumed): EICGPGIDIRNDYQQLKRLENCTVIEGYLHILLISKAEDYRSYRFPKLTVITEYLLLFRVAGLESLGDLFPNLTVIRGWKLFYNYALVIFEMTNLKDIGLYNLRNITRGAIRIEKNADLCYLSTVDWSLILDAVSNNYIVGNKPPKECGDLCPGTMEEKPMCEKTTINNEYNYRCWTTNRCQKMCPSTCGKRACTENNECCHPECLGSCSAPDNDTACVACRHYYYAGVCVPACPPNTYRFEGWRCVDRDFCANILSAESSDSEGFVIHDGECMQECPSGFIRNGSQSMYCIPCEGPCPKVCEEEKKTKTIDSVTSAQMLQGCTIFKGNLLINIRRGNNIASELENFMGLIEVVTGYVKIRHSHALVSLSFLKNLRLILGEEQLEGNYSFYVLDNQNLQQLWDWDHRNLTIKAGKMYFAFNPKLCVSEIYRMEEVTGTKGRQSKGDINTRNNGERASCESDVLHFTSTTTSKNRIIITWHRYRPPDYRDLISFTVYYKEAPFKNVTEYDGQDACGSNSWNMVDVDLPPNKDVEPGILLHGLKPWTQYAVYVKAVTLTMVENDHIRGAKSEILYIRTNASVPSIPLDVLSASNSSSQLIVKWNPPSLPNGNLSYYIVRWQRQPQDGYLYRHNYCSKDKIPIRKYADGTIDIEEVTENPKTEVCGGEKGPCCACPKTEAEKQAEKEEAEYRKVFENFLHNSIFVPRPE
Insulin-like growth factor 1 receptor, sequence (P08069 741-1367 limits assumed): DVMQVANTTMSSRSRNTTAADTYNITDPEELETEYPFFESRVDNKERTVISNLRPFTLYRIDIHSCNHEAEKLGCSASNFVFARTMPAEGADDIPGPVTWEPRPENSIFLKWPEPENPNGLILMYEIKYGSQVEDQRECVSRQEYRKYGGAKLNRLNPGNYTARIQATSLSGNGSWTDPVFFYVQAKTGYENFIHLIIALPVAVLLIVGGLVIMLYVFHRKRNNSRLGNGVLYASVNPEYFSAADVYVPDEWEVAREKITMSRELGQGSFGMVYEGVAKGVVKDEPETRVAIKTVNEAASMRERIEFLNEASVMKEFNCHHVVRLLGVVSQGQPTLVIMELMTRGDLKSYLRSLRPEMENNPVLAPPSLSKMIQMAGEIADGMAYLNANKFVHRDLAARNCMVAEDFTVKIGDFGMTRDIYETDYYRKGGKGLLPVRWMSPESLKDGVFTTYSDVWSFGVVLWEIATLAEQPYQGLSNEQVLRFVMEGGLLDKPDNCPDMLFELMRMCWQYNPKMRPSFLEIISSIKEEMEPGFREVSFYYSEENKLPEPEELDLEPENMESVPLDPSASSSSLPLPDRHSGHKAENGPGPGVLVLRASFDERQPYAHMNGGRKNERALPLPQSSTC

[9] = molecular target: Proto-oncogene tyrosine-protein kinase Src (Homo sapiens, UniProt P12931); assay: Inhibition SRC (unknown origin)
[10] = tested on: Plasmodium falciparum; assay: Antimalarial activity against Plasmodium falciparum assessed as parasitic reduction at 100 mg/kg relative to control; format: functional; parameters: scale not given: the % may be the effect or the level left
[11] = tested on: Plasmodium falciparum; assay: Antimalarial activity against drug sensitive Plasmodium falciparum 3D7; format: functional, organism-based
[12] = tested on: KB; assay: Antitumor activity against human KB cells assessed as reduction in cell viability; format: functional, cell-based
[13] = Half life in mouse at 10 mg/kg, po; format: ADME, organism-based; conditions: in vivo
[14] = Cmax in mouse at 100 mg/kg, po; format: ADME, organism-based; parameters: dose 100 mg/kg, route po; conditions: in vivo
[15] = tested on: Plasmodium falciparum; assay: Antimalarial activity against Plasmodium falciparum assessed as parasitic reduction at 10 mg/kg of chloroquine relative to control; format: functional; parameters: scale not given: the % may be the effect or the level left
[16] = Inhibition of human recombinant LDH
[17] = tested on: HeLa; assay: Antitumor activity against human HeLa cells assessed as reduction in cell viability; format: functional, cell-based
[18] = molecular target: Lactate dehydrogenase (Plasmodium falciparum, UniProt Q0PJ46); assay: Inhibition of recombinant Plasmodium falciparum LDH
Lactate dehydrogenase, sequence (Q0PJ46 whole entry): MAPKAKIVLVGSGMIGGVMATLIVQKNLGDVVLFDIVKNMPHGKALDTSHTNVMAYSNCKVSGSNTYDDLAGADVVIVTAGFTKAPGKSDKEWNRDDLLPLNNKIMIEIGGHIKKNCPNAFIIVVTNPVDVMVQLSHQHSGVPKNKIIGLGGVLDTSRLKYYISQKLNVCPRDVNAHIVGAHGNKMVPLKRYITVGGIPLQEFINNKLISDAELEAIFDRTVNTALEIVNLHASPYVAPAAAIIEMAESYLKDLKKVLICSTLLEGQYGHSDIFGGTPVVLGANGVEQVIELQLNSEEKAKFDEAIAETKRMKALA

[19] = tested on: Plasmodium falciparum; assay: Antimalarial activity against drug resistant Plasmodium falciparum KI; format: functional, organism-based
[20] = Binding affinity to Plasmodium falciparum LDH assessed as inhibitory constant
[21] = Half life in mouse at 10 mg/kg, ip; format: ADME, organism-based; conditions: in vivo
[22] = Cmax in mouse at 100 mg/kg, ip; format: ADME, organism-based; parameters: dose 100 mg/kg, route ip; conditions: in vivo
[23] = Lipophilicity, log D of compound; format: physicochemical; conditions: octanol/water
[24] = Inhibition of HIF (unknown origin); parameters: species or system Homo sapiens
[25] = tested on: Helicobacter pylori; assay: Antibacterial activity against Helicobacter pylori NCTC11637 assessed as reduction in bacterial growth incubated for 1 hrs in presence of metronidazole by colony-counting method; format: functional
[26] = tested on: Helicobacter pylori; assay: Antibacterial activity against Helicobacter pylori SS1 assessed as reduction in bacterial growth incubated for 1 hrs in presence of metronidazole by colony-counting method; format: functional
[27] = tested on: Helicobacter pylori; assay: Antibacterial activity against Helicobacter pylori SS1 assessed as reduction in bacterial growth in the presence of metronidazole-sensitive by broth microdilution method; format: functional
[28] = tested on: Mus musculus; assay: In vivo antibacterial activity against Helicobacter pylori SS1 infected mouse model assessed as reduction in infection at 200 mg/kg, po administered for 8 days relative to control; format: functional; parameters: scale not given: the % may be the effect or the level left; conditions: time 8 day
[29] = tested on: Helicobacter pylori; assay: Antibacterial activity against Helicobacter pylori NCTC11637 assessed as reduction in bacterial growth incubated for 1 hrs in presence of metronidazole-resistant by colony-counting method; format: functional
[30] = tested on: Rattus norvegicus; assay: Antihypertensive activity in spontaneously hypertensive rat model assessed as change in blood pressure at 3 mg/kg, po measured after 6 hrs; format: functional
[31] = tested on: Rattus norvegicus; assay: Antihypertensive activity in spontaneously hypertensive rat model assessed as change in heart rate at 10 mg/Kg, po measured after 6 hrs; format: functional
[32] = tested on: HASMC; assay: Antiproliferative activity against human HASMC cells assessed as inhibition of cell proliferation measured after 24 hrs by MTT assay; format: functional, cell-based
[33] = tested on: Rattus norvegicus; assay: Antihypertensive activity in spontaneously hypertensive rat model assessed as change in heart rate at 1 mmol/Kg, po measured after 3 hrs; format: functional
[34] = tested on: Rattus norvegicus; assay: Antihypertensive activity in spontaneously hypertensive rat model assessed as change in blood pressure at 3 mg/kg, po measured after 3 hrs; format: functional
[35] = tested on: Rattus norvegicus; assay: Antihypertensive activity in spontaneously hypertensive rat model assessed as change in heart rate at 1 mmol/Kg, po measured after 10 hrs; format: functional
[36] = tested on: Rattus norvegicus; assay: Antihypertensive activity in spontaneously hypertensive rat model assessed as change in blood pressure at 3 mg/kg, po measured after 10 hrs; format: functional
[37] = tested on: HEK-293T; assay: Antitumor activity against human HEK293T cells xenografted in mouse model assessed as reduction in tumor growth at 100 mg/kg bid relative to control; format: functional; parameters: scale not given: the % may be the effect or the level left
[38] = tested on: HEK-293T; assay: Antiproliferative activity against human HEK293T cells assessed as inhibition of cell proliferation by MTT assay; format: functional, cell-based
[39] = Half life in mouse; format: ADME, organism-based; conditions: in vivo
[40] = tested on: HCT-116; assay: Antiproliferative activity against human HCT-116 cells assessed as inhibition of cell proliferation incubated for 24 hrs by MTT assay; format: functional, cell-based; conditions: HCT-116, 24 h
[41] = tested on: SW480; assay: cells; conditions: Homo sapiens, SW480, 24 h
Description: Antiproliferative activity against human SW480 cells assessed as inhibition of cell proliferation incubated for 24 hrs by MTT assay

[42] = tested on: Staphylococcus aureus; assay: Antibiofilm activity against Staphylococcus aureus reduction in biofilm formation at 63 uM relative to control; format: functional; parameters: scale not given: the % may be the effect or the level left
[43] = tested on: Staphylococcus aureus; assay: Antibiofilm activity against Staphylococcus aureus reduction in biofilm formation in the presence of azithromycin at 63 uM relative to control; format: functional; parameters: scale not given: the % may be the effect or the level left
[44] = tested on: Staphylococcus aureus; assay: Antibacterial activity against Staphylococcus aureus assessed as reduction in bacterial growth incubated for 1 hrs in presence of azithromycin by colony-counting method; format: functional
[45] = tested on: Streptococcus pneumoniae; assay: Antibiofilm activity against Streptococcus pneumoniae reduction in biofilm formation at 63 uM relative to control; format: functional; parameters: scale not given: the % may be the effect or the level left
[46] = tested on: Streptococcus pneumoniae; assay: Antibiofilm activity against Streptococcus pneumoniae reduction in biofilm formation in the presence of tobramycin at 13 uM relative to control; format: functional; parameters: scale not given: the % may be the effect or the level left
[47] = tested on: Streptococcus pneumoniae; assay: Antibacterial activity against Streptococcus pneumoniae assessed as reduction in bacterial growth incubated for 1 hrs in presence of tobramycin by colony-counting method; format: functional
[48] = tested on: Streptococcus pneumoniae; assay: Antibacterial activity against Streptococcus pneumoniae assessed as reduction in bacterial growth by broth microdilution method; format: functional
[49] = tested on: Staphylococcus aureus; assay: Antibacterial activity against Staphylococcus aureus assessed as reduction in bacterial growth by broth microdilution method; format: functional
[50] = tested on: HCT-116; assay: Antiproliferative activity against human HCT-116 cells assessed as inhibition of cell proliferation by MTT assay; format: functional, cell-based
[51] = tested on: HeLa; assay: Antiproliferative activity against human HeLa cells assessed as reduction in cell viability by MTT assay; format: functional, cell-based
[52] = tested on: HCT-116; assay: Antitumor activity against human HCT-116 cells xenografted in mouse model assessed as reduction in tumor growth at 100 mg/kg bid relative to control; format: functional; parameters: scale not given: the % may be the effect or the level left
[53] = Antiproliferative activity against mouse Lewis lung carcinoma cell line cells assessed as inhibition of cell proliferation by MTT assay; format: functional, cell-based
[54] = molecular target: Indoleamine 2,3-dioxygenase 1 (Homo sapiens, UniProt P14902); assay: Inhibition of IDO1 (unknown origin)
Indoleamine 2,3-dioxygenase 1, sequence (P14902 whole entry): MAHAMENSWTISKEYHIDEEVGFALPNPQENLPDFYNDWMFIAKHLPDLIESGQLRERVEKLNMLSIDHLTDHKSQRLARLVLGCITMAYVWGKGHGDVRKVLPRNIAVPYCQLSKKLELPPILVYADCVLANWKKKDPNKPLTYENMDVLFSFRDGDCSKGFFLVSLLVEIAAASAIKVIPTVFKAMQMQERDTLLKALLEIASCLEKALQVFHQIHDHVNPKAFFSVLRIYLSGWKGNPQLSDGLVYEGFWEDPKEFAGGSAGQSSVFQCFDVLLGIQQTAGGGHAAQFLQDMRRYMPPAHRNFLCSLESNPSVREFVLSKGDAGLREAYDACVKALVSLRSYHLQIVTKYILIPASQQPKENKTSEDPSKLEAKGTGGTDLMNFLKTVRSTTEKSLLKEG

SMILES: O=C(O)c1nonc1O
Activity [10]: 41%
EC50 [11]: 22.5 µM
EC90 [11]: 75.9 µM
EC50 [12]: 640 µM
half-life [13]: 1.3 h
Cmax [14]: 138 µM
Activity [15]: 100%
IC50 [16]: 72.1 µM
EC50 [17]: 1300 µM
IC50 [18]: 0.65 µM
EC50 [19]: 18.6 µM
Ki [20]: 0.21 µM
half-life [21]: 1.3 h
Cmax [22]: 196 µM

SMILES: CS(=O)(=O)c1ccc(Oc2cc(F)cc(C#N)c2)c2c1[C@H](O)[C@H](F)[C@@H]2F [BELZUTIFAN]
logD [23]: 1.2
IC50 [24]: 9 µM

SMILES: COc1ccc(C[S+]([O-])c2ccc(N)c3nonc23)cc1 (stereo not given)
MIC [25]: 187 µM
MIC [26]: 2.9 µM
MIC [27]: 105 µM
Activity [28]: 60%
MIC [29]: 53 µM

SMILES: O=S(=O)(c1cccc2cnccc12)N1CCCNCC1 [FASUDIL]
Activity [30]: -20 mmHg
Activity [31]: -10 bpm
IC50 [32]: 1.3 µM
Activity [33]: -50 bpm
Activity [34]: -30 mmHg
Activity [35]: -10 bpm
Activity [36]: 0 mmHg

SMILES: O=C(NCCNc1nonc1/C(=N/O)Nc1ccc(F)c(Br)c1)c1cccc(N(CCCl)CCCl)c1
EC50 [50]: 5.1 µM
EC50 [51]: 0.27 µM
Activity [52]: 58% and 48%
EC50 [53]: 18 µM
IC50 [54]: 0.13 µM

Now from value to compound, other results behind:

EC50 [1]: 4.3 µM
solubility [2]: > 500 µM
logP [3]: 5.2
half-life [4]: 5.7 h
SMILES: Oc1nc2nonc2nc1Nc1ccc(OC(F)(F)F)cc1

IC50 [5]: < 1 µM
IC50 [6]: < 1 µM
IC50 [7]: < 1 µM
IC50 [8]: < 1 µM
IC50 [9]: < 1 µM
SMILES: O=C(O)c1cc(-c2ccc(/C=N/Nc3nc4nonc4nc3Nc3ccccc3)o2)ccc1Cl

half-life [39]: 3.8 h
SMILES: NS(=O)(=O)N1CCC[C@@H](CNc2nonc2/C(=N/O)Nc2ccc(F)c(Br)c2)C1
Activity [37]: 25%
EC50 [38]: 0.069 µM

EC50 [40]: 31 µM
EC50 [41]: 20 µM
SMILES: c1ccc2c(c1)c1nc3nonc3nc1n2CCc1nn[nH]n1

MIC [44]: 200 µM
MIC [47]: 50 µM
MIC [48]: 250 µM (≈ 65.3 µg/mL)
MIC [49]: 250 µM (≈ 65.3 µg/mL)
SMILES: N=C(N/C(=N/O)c1nonc1N)c1ccccc1N
Activity [42]: 77%
Activity [43]: 48%
Activity [45]: 73%
Activity [46]: 50%
